Measured values published in patent publication US11072632B2, “Inhibitors of 17β-HSD1, 17β-HSD3 and 17β-HSD10” (UNIVERSITÉ LAVAL, priority 2011, dated 2021).
Like-named read-outs stand apart in the source and are kept apart here.

Assays:
[1] = target: T1, 17β-HSD10 (Homo sapiens, UniProt Q99714); assay: Inhibition of 17β-HSD10 in stably transfected HEK-293 whole cells (E2 into E1); assay type: cell-based
T1 construct: expressed in transfected cells
T1 sequence (Q99714 1-261): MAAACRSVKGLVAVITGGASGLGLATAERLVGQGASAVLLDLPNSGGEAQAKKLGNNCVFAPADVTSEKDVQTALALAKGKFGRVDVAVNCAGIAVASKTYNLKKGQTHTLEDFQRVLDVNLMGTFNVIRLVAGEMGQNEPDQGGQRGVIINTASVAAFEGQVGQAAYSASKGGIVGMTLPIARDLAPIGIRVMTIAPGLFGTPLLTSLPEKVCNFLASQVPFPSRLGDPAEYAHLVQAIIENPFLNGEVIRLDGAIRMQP

[2] = target: T2, 17β-HSD3 (Homo sapiens, UniProt P37058); assay: Inhibition of 17β-HSD3 in homogenated HEK-293 cells; assay type: biochemical
T2 construct: expressed in transfected cells; host or cells: HEK-293 (homogenate)
T2 sequence (P37058 1-310): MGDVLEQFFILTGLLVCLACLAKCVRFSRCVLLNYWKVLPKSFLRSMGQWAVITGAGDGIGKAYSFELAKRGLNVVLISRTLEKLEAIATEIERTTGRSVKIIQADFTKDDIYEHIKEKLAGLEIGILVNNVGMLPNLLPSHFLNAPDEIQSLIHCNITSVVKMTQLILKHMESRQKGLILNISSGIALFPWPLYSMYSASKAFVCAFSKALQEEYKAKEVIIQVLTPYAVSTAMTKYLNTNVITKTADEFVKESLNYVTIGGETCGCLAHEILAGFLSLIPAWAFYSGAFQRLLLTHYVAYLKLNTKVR

[3] = target: T2, 17β-HSD3; assay: Inhibition of 17β-HSD3 in intact HEK-293 cells; assay type: cell-based; settings: for Intact cells (%), tested at 1 μM: Table 3, footnote b; for inhibition at 0.1 µM: HEK293, 1 h
[4] = [14C]-E2 (1 μM) into [14C]-E1, intact HEK-293 cells, 1 μM
[5] = HEK293, [14C]-E2 (1 μM) into [14C]-E1, intact HEK-293 cells, 1 μM, read-out: Inhibition (%) at 1 μM
[6] = Table 3, read-out: Homo (%) (0.01 μM)
[7] = Table 3, read-out: Homo (%) (0.1 μM)
[8] = Table 3, 0.1 μM, read-out: Intact cells (%) (0.1 μM)

Compound | Inhibition (%) at 1 μM [1, 4] [%] | Homo (%) (0.01 μM) ([2]; Table 3) | Homo (%) (0.1 μM) ([2]; Table 3) | Intact cells (%), tested at 1 μM [3] | inhibition at 1 µM [1, 5] [%] | inhibition at 0.01 µM [2, 6] [%] | inhibition at 0.1 µM [2, 7] [%] | other results
CC1CN(C[C@@]2(O)CC[C@@]3(C)[C@@H](CC[C@@H]4[C@@H]3CC[C@]3(C)C(=O)CC[C@@H]43)C2)C(C)CN1Cc1cccc(SC(F)(F)F)c1 (stereo partly drawn) [Compound 11d, (3α,5α)-3-{[(2ξ,5ξ)-2,5-dimethyl-4-{3-[(trifluoromethyl)sulfanyl]benzyl}piperazin-1-yl]methyl}-3-hydroxyandrostan-17-one] | 27 | 18 | 88 | N/A (58)^b % | – | – | – | –
CC1CN(C[C@@]2(O)CC[C@@]3(C)[C@@H](CC[C@@H]4[C@@H]3CC[C@]3(C)C(=O)CC[C@@H]43)C2)C(C)CN1Cc1cccc(Cl)c1 (stereo partly drawn) [Compound 11e, (3α,5α)-3-{[(2ξ,5ξ)-4-(3-chlorobenzyl)-2,5-dimethylpiperazin-1-yl]methyl}-3-hydroxyandrostan-17-one] | 25 | 26 | 84 | N/A (55)^b % | – | – | – | –
COc1cccc(CN2CC(C)N(C[C@@]3(O)CC[C@@]4(C)[C@@H](CC[C@@H]5[C@@H]4CC[C@]4(C)C(=O)CC[C@@H]54)C3)CC2C)c1 (stereo partly drawn) [Compound 11f, (3α,5α)-3-hydroxy-3-{[(2ξ,5ξ)-4-(3-methoxybenzyl)-2,5-dimethylpiperazin-1-yl]methyl}androstan-17-one] | – | – | – | – | 21 | 19 | 87 | inhibition at 0.1 µM [3, 8]: 50%
CC1CN(CC2(O)CCC3(C)C(CCC4C5CCC(=O)C5(C)CCC43)C2)C(C)CN1Cc1cccnc1 (stereo not drawn) [Compound 11g, (3α,5α)-3-{[(2ξ,5ξ)-2,5-dimethyl-4-(pyridin-3-ylmethyl)piperazin-1-yl]methyl}-3-hydroxyandrostan-17-one] | 21 | 17 | 47 | N/A (58)^b % | – | – | – | –
C[C@]12CC[C@](O)(CN3CCN(C(=O)c4ccccc4C(F)(F)F)CC3)C[C@@H]1CC[C@@H]1[C@@H]2CC[C@]2(C)C(=O)CC[C@@H]12 [Compound 12c, (3α,5α)-3-hydroxy-3-[(4-{[2-(trifluoromethyl)phenyl]carbonyl}-piperazin-1-yl)methyl]androstan-17-one] | – | – | – | – | 47 | 31 | 86 | inhibition at 0.1 µM [3, 8]: 62%
CC1CN(C(=O)c2ccc(C(F)(F)F)cc2)C(C)CN1C[C@@]1(O)CC[C@@]2(C)[C@@H](CC[C@@H]3[C@@H]2CC[C@]2(C)C(=O)CC[C@@H]32)C1 (stereo partly drawn) [Compound 13d, (3α,5α)-3-{[(2,5)-2,5-dimethyl-4-{[4-(trifluoromethyl)phenyl]carbonyl}piperazin-1-yl]methyl}-3-hydroxyandrostan-17-one] | 22 | 17 | 91 | – | – | – | – | Intact cells (%) (0.1 μM) ([3]; Table 3, 0.1 μM): 61%
C[C@]12CC[C@](O)(CN3CCN(S(=O)(=O)c4cccc(C(F)(F)F)c4)CC3)C[C@@H]1CC[C@@H]1[C@@H]2CC[C@]2(C)C(=O)CC[C@@H]12 [Compound 14a, (3α,5α)-3-hydroxy-3-[(4-{[3-(trifluoromethyl)phenyl]sulfonyl}piperazin-1-yl)methyl]androstan-17-one] | – | – | – | N/A (71)^b % | 3 | 21 | 82 | –
C[C@]12CC[C@](O)(CN3CCN(S(=O)(=O)c4ccccc4C(F)(F)F)CC3)C[C@@H]1CC[C@@H]1[C@@H]2CC[C@]2(C)C(=O)CC[C@@H]12 [Compound 14b, (3α,5α)-3-hydroxy-3-[(4-{[2-(trifluoromethyl)phenyl]sulfonyl}piperazin-1-yl)methyl]androstan-17-one] | – | – | – | – | 32 | 45 | 92 | inhibition at 0.1 µM [3, 8]: 45%
C[C@]12CC[C@](O)(CN3CCN(S(=O)(=O)c4ccc(C(F)(F)F)cc4)CC3)C[C@@H]1CC[C@@H]1[C@@H]2CC[C@]2(C)C(=O)CC[C@@H]12 [Compound 14c, (3α,5α)-3-hydroxy-3-[(4-{[4-(trifluoromethyl)phenyl]sulfonyl}-piperazin-1-yl)methyl]androstan-17-one] | – | – | – | – | – | – | – | inhibition at 1 µM ([1]; HEK293, read-out: Inhibition (%) at 1 μM): 14%; inhibition at 0.01 µM ([2]; read-out: Homo (%) (0.01 μM), Table 3): 21%; inhibition at 0.1 µM ([2]; read-out: Homo (%) (0.1 μM), Table 3): 78%; inhibition at 0.1 µM ([3]; read-out: Intact cells (%) (0.1 μM), Table 3, 0.1 μM): 34%
CC1CN(S(=O)(=O)c2cccc(C(F)(F)F)c2)C(C)CN1C[C@@]1(O)CC[C@@]2(C)[C@@H](CC[C@@H]3[C@@H]2CC[C@]2(C)C(=O)CC[C@@H]32)C1 (stereo partly drawn) [Compound 15a, (3α,5α)-3-{[(2ξ,5ξ)-2,5-dimethyl-4-{[3-(trifluoromethyl)phenyl]sulfonyl}piperazin-1-yl]methyl}-3-hydroxyandrostan-17-one] | 42 | 32 | 91 | – | – | – | – | Intact cells (%) (0.1 μM) ([3]; Table 3, 0.1 μM): 77%
CC1CN(S(=O)(=O)c2ccccc2C(F)(F)F)C(C)CN1CC1(O)CCC2(C)C(CCC3C4CCC(=O)C4(C)CCC32)C1 (stereo not shown) [Compound 15c] | 18 | 79 | 92 | – | – | – | – | Intact cells (%) (0.1 μM) ([3]; Table 3, 0.1 μM): 47%
C[C@]12CC[C@@]3(C[C@@H]1CC[C@@H]1[C@@H]2CC[C@]2(C)C(=O)CC[C@@H]12)CN(CCO)C(=O)O3 [Compound 21, (3R,5S,8R,9S,10S,13S,14S)-3′-(2-hydroxyethyl)-10,13-dimethyltetrahydrodecahydro-2′H-spiro[cyclopenta[α]phenanthrene-3,5′-[1,3]oxazolidine]-2′,17(2H)-dione] | – | – | – | – | – | – | – | IC50 ([1]; intact transfected HEK-293 cells, E2 1 μM, read-out: IC50): 550 nM; inhibition at 0.01 µM ([2]; read-out: Homo (%) (0.01 μM), Table 4): 0%; inhibition at 0.1 µM ([2]; read-out: Homo (%) (0.1 μM), Table 4): 9%; inhibition at 1 µM ([2]; read-out: Homo (%) (1.0 μM), Table 4, 1.0 μM): 38%; Intact cells (%) (0.1 μM), tested in another experiment ([3]; Table 4, footnote b, 0.1 μM): 16^b %
